Measurements as given in BindingDB's records for doi:10.1016/j.chembiol.2006.05.008 (Gpc Biotech, 2006).

Target: Cyclin-dependent kinase 2 (Homo sapiens, UniProt P24941)
Test: Enzymatic Assay
Description: CAII assays were performed at CEREP (paris). All other kinase assays were performed at Upstate (Dundee, UK).

**Q.** For `CC(C)c1nn(-c2c(Cl)cc(Cl)cc2Cl)c2nc(Cc3ccc(OC(C)(C)C(=O)O)cc3)[nH]c(=O)c12` [RGB-285961], which EC50 is on record?
**A.** 70 nM

**Q.** What about the IC50 of the same compound?
**A.** 20 nM
